Source: patent publication US20060159829A1, “Consumer product for enhancing mental focus” (Conopco Inc, d/b/a UNILEVER, priority 2004, published 2006)

Experiments:
[1] = cited from earlier work
[2] = tested on: spoilage yeasts or moulds; assay: Antimicrobial effect of cinnamic acid at low and neutral pH; type: cell-based; conditions: 100 ppm

## O=S(O)O [sulphite]
[1]
  pKa: 1.88

## O=C(O)C=Cc1ccccc1 [cinnamic acid]
[2]; neutral pH
  effect on growth of spoilage yeasts or moulds: entirely without effect
[2]; pH 3.0
  effect on growth of spoilage yeasts or moulds: completely extinguish growth
